In ChEMBL document CHEMBL1137889, “Synthesis and antienteroviral activity of a series of novel, oxime ether-containing pyridyl imidazolidinones” (Bioorg Med Chem Lett, 2004):

Assays:
Coxsackievirus [1] = assay: inhibition concentration required against coxsackievirus B5 was determined by plaque reduction assay; type: functional, organism-based
Coxsackievirus [2] = assay: inhibition concentration required against coxsackievirus B2 was determined by plaque reduction assay; type: functional, organism-based
Echovirus [3] = assay: inhibition concentration required against echovirus 29 was determined by plaque reduction assay; type: functional, organism-based
Coxsackievirus [4] = assay: inhibition concentration required against coxsackievirus B1 was determined by plaque reduction assay; type: functional, organism-based
Echovirus [5] = assay: inhibition concentration required against echovirus 9 was determined by plaque reduction assay; type: functional, organism-based
Coxsackievirus [6] = assay: inhibition concentration required against coxsackievirus A9 was determined by plaque reduction assay; type: functional, organism-based
Rhabdomyosarcoma cell = assay: Concentration required for 50% cytotoxicity against human rhabdomyosarcoma cell lines; type: functional
Coxsackievirus [7] = assay: inhibition concentration required against coxsackievirus B4 was determined by plaque reduction assay; type: functional, organism-based
Coxsackievirus [8] = assay: inhibition concentration required against coxsackievirus A16 was determined by plaque reduction assay; type: functional, organism-based
Enterovirus A71 [9] = assay: inhibition concentration required against human enterovirus 71 (2231) genotype C was determined by plaque reduction assay; type: functional, organism-based; conditions: Enterovirus A
Enterovirus A71 [10] = assay: inhibition concentration required against human enterovirus 71 (BrCr) genotype A was determined by plaque reduction assay; type: functional, organism-based
Enterovirus A71 [11] = assay: inhibition concentration required against human enterovirus 71 strain 4643 was determined by plaque reduction assay; type: functional, organism-based; conditions: Enterovirus A
Coxsackievirus [12] = assay: inhibition concentration required against coxsackievirus B6 was determined by plaque reduction assay; type: functional, organism-based
Coxsackievirus [13] = assay: inhibition concentration required against coxsackievirus B3 was determined by plaque reduction assay; type: functional, organism-based
Enterovirus A71 [14] = assay: inhibition concentration required against human enterovirus 71 (1743) genotype B was determined by plaque reduction assay; type: functional, organism-based; conditions: Enterovirus A
Coxsackievirus [15] = assay: inhibition concentration required against coxsackievirus A24 was determined by plaque reduction assay; type: functional, organism-based
Coxsackievirus [16] = assay: inhibition concentration required against coxsackievirus A10 was determined by plaque reduction assay; type: functional, organism-based
Enterovirus A71 [17] = assay: inhibition concentration required against human enterovirus 71 (2086) genotype C was determined by plaque reduction assay; type: functional, organism-based; conditions: Enterovirus A
Enterovirus D68 = assay: inhibition concentration required against human enterovirus 68 was determined by plaque reduction assay; conditions: Enterovirus D

Structure (SMILES): O=C1N(CCCCCOc2ccc(-c3ccc(Cl)cc3)cc2)CCN1c1ccncc1
- IC50 (Coxsackievirus [1]): 4180 nM
- IC50 (Coxsackievirus [2]): > 25000 nM
- IC50 (Echovirus [3]): 30 nM
- IC50 (Coxsackievirus [4]): > 25000 nM
- IC50 (Echovirus [5]): 300 nM
- IC50 (Coxsackievirus [6]): 40 nM
- CC50 (Rhabdomyosarcoma cell): > 12500 nM
- IC50 (Coxsackievirus [7]): 3140 nM
- IC50 (Coxsackievirus [8]): > 25000 nM
- IC50 (Enterovirus A71 [9]): 80 nM
- IC50 (Enterovirus A71 [10]): 50 nM
- IC50 (Enterovirus A71 [11]): 30 nM
- IC50 (Coxsackievirus [12]): > 25000 nM
- IC50 (Coxsackievirus [13]): > 25000 nM
- IC50 (Enterovirus A71 [14]): 90 nM
- IC50 (Coxsackievirus [15]): 140 nM
- IC50 (Coxsackievirus [16]): 8610 nM
- IC50 (Enterovirus A71 [17]): 70 nM
- IC50 (Enterovirus D68): > 25000 nM
